Assay results reported in ChEMBL document CHEMBL1121600, “Inhibitors of phenylethanolamine N-methyltransferase and epinephrine biosynthesis. 2. 1,2,3,4-Tetrahydroisoquinoline-7-sulfonanilides” (J Med Chem, 1980).

Key:
Format in all cases: organism-based
[1] = biological target: T1, Phenylethanolamine N-methyltransferase (Mus musculus) (UniProt P40935); test: Phenylethanolamine N-Methyltransferase inhibition assay in a 7-day mouse study was determined by epinephrine level at 100 mg/kg dose; parameters: dose 100 mg/kg
T1 sequence (whole entry): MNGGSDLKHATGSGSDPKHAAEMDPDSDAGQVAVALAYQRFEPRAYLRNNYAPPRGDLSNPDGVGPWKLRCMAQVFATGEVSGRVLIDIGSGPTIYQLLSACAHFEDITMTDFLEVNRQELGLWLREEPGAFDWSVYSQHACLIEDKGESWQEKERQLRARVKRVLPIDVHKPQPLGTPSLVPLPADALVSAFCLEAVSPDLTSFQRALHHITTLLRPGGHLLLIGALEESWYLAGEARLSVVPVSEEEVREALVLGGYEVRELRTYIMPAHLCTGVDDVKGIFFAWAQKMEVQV

[2] = biological target: T2, Phenylethanolamine N-methyltransferase (Homo sapiens) (UniProt P11086); test: Epinephrine to norepinephrine ratio at 100 mg/kg dose; parameters: dose 100 mg/kg; details: Oryctolagus cuniculus
T2 sequence (whole entry): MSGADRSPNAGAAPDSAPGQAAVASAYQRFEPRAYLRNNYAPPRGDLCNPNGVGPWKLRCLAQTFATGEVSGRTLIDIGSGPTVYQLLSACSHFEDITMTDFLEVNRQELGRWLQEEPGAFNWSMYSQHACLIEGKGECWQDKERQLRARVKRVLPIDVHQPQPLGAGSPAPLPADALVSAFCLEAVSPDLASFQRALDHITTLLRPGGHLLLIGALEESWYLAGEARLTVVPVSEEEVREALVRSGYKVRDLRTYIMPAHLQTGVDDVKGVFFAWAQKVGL

[3] = biological target: T1, Phenylethanolamine N-methyltransferase (Mus musculus); test: Phenylethanolamine N-Methyltransferase inhibition assay in a 7-day mouse study was determined by epinephrine level at 25 mg/kg dose; parameters: dose 25 mg/kg
[4] = biological target: T1, Phenylethanolamine N-methyltransferase (Mus musculus); test: Phenylethanolamine N-Methyltransferase inhibition assay in a 7-day mouse study was determined by epinephrine level at 50 mg/kg dose; parameters: dose 50 mg/kg

Row | SMILES | Epinephrine level [1] | Ratio [2] | Epinephrine level [3] | Epinephrine level [4]
1 | O=S(=O)(Nc1ccc(Br)cc1)c1ccc2c(c1)CNCC2 | 7 | 2.1 | – | –
2 | O=S(=O)(Nc1ccc(Cl)cc1)c1ccc2c(c1)CNCC2 | – | – | 8 | –
3 | NS(=O)(=O)c1ccc2c(c1)CNCC2 | 5.8 | – | 6.7 | 5.9
